Experimental data from ChEMBL document CHEMBL4699661, “Synthesis and Biological Characterization of Cyclic Disulfide-Containing Peptide Analogs of the Multifunctional Opioid/Neuropeptide FF Receptor Agonists That Produce Long-Lasting and Nontolerant Antinociception” (J Med Chem, 2020).
pEC50: −log10 of the molar value. The source made the active and inactive calls. The rule behind the calls is not given here.

Tests used:
Mu-type opioid receptor = Mu-type opioid receptor (Homo sapiens, UniProt P35372); test: Agonist activity at mu opioid receptor (unknown origin) expressed in HEK293-A cells assessed as inhibition of forskolin-stimulated cAMP accumulation incubated for 30 mins by competition PKA binding assay; assay type: functional, cell-based
[1] = target: Kappa-type opioid receptor (Homo sapiens, UniProt P41145); test: Agonist activity at kappa opioid receptor (unknown origin) expressed in HEK293-A cells assessed as inhibition of forskolin-stimulated cAMP accumulation incubated for 30 mins by competition PKA binding assay; assay type: functional, cell-based; conditions: read-out: EC50
[2] = target: T1, Delta-type opioid receptor (Homo sapiens, UniProt P41143); test: Agonist activity at delta opioid receptor (unknown origin) expressed in HEK293-A cells assessed as inhibition of forskolin-stimulated cAMP accumulation incubated for 30 mins by competition PKA binding assay; assay type: functional, cell-based
[3] = target: T1, Delta-type opioid receptor; test: Agonist activity at delta opioid receptor (unknown origin) expressed in HEK293-A cells assessed as inhibition of forskolin-stimulated cAMP accumulation incubated for 30 mins by competition PKA binding assay relative to control; assay type: functional, cell-based; conditions: filed as agonist
[4] = target: T2, Neuropeptide FF receptor 1 (Homo sapiens, UniProt Q9GZQ6); test: Agonist activity at NPFFR1 (unknown origin) expressed in HEK293-A cells assessed as inhibition of forskolin-stimulated cAMP accumulation incubated for 30 mins by competition PKA binding assay; assay type: functional, cell-based
[5] = target: T2, Neuropeptide FF receptor 1; test: Agonist activity at NPFFR1 (unknown origin) expressed in HEK293-A cells assessed as inhibition of forskolin-stimulated cAMP accumulation incubated for 30 mins by competition PKA binding assay relative to control; assay type: functional, cell-based; conditions: filed as agonist
[6] = target: T3, Neuropeptide FF receptor 2 (Homo sapiens, UniProt Q9Y5X5); test: Agonist activity at NPFFR2 (unknown origin) expressed in HEK293-A cells assessed as inhibition of forskolin-stimulated cAMP accumulation incubated for 30 mins by competition PKA binding assay; assay type: functional, cell-based
[7] = target: T3, Neuropeptide FF receptor 2; test: Agonist activity at NPFFR2 (unknown origin) expressed in HEK293-A cells assessed as inhibition of forskolin-stimulated cAMP accumulation incubated for 30 mins by competition PKA binding assay relative to control; assay type: functional, cell-based; conditions: filed as agonist
[8] = Half life in 100% mouse plasma at 0.01 mM by RP-HPLC analysis; assay type: ADME, cell-free
Mus musculus [9] = test: Analgesic activity in icv dosed Kunming mouse by radiant heat tail flick test; assay type: functional
Mus musculus [10] = test: Analgesic activity in icv dosed Kunming mouse assessed as time duration during which supraspinal antinociception lasted by radiant heat tail flick test; assay type: functional
Mus musculus [11] = test: Analgesic activity in Kunming mouse assessed as increase in antinociceptive effect at 0.03 pmol, icv pre-treated with 10 nmol, icv NPFF receptor antagonist RF9 by radiant heat tail flick test; assay type: functional, organism-based
Mus musculus [12] = test: Analgesic activity in sc dosed Kunming mouse by radiant heat tail flick test; assay type: functional
Mus musculus [13] = test: Analgesic activity in sc dosed Kunming mouse assessed as time duration during which antinociception lasted by radiant heat tail flick test; assay type: functional
Mus musculus [14] = test: Analgesic activity in Kunming mouse at 8.94 umol/kg, sc pre-treated with 1 mg/kg, sc opioid receptor antagonist naloxone by radiant heat tail flick test; assay type: functional, organism-based; conditions: dose 8.94 µmol/kg
Mus musculus [15] = test: Analgesic activity in Kunming mouse at 8.94 umol/kg, sc pre-treated with 1 mg/kg, sc peripherally restricted opioid receptor antagonist naloxone methiodide by radiant heat tail flick test; assay type: functional, organism-based; conditions: dose 8.94 µmol/kg
Mus musculus [16] = test: Analgesic activity in Kunming mouse at 8.94 umol/kg, sc pre-treated with 5 nmol, icv peripherally restricted opioid receptor antagonist naloxone methiodide by radiant heat tail flick test; assay type: functional, organism-based; conditions: dose 8.94 µmol/kg
Mus musculus [17] = test: Analgesic activity in Kunming mouse at 2.68 umol/kg, sc pre-treated with 1 mg/kg, sc opioid receptor antagonist naloxone by radiant heat tail flick test; assay type: functional, organism-based; conditions: dose 2.68 µmol/kg
Mus musculus [18] = test: Analgesic activity in Kunming mouse at 2.68 umol/kg, sc pre-treated with 1 mg/kg, sc peripherally restricted opioid receptor antagonist naloxone methiodide by radiant heat tail flick test; assay type: functional, organism-based; conditions: dose 2.68 µmol/kg
Mus musculus [19] = test: Analgesic activity in Kunming mouse at 2.68 umol/kg, sc pre-treated with 5 nmol, icv peripherally restricted opioid receptor antagonist naloxone methiodide by radiant heat tail flick test; assay type: functional, organism-based; conditions: dose 2.68 µmol/kg
Mus musculus [20] = test: Analgesic activity in NPFF2 -/- C57BL/6 mouse at 0.89 umol/kg, sc by radiant heat tail flick test relative to wild type mouse; assay type: functional, organism-based; conditions: dose 0.89 µmol/kg
Mus musculus [21] = test: Analgesic activity in NPFF2 -/- C57BL/6 mouse at 0.09 umol/kg, sc by radiant heat tail flick test relative to wild type mouse; assay type: functional, organism-based; conditions: dose 0.09 µmol/kg
Mus musculus [22] = test: Analgesic activity in sc dosed Kunming mouse dosed once daily for 8 consecutive days by radiant heat tail flick test; assay type: functional, organism-based; conditions: time 8.0 day
[23] = Half life in 15% mouse brain at 0.01 mM by RP-HPLC analysis; assay type: ADME, tissue-based
[24] = Drug level in Kunming mouse plasma at 1 mg/kg, iv after 5 to 240 mins by LC-MS/MS analysis; assay type: ADME, organism-based; conditions: time 5-240 min
[25] = Drug level in Kunming mouse brain at 1 mg/kg, iv after 5 to 240 mins by LC-MS/MS analysis; assay type: ADME, organism-based; conditions: in vivo, time 5-240 min
[26] = Ratio of drug level in brain to plasma in Kunming mouse brain at 1 mg/kg, iv after 5 to 240 mins by LC-MS/MS analysis; assay type: ADME, organism-based; conditions: time 5-240 min, read-out: BPR
Mus musculus [27] = test: Analgesic activity in Kunming mouse at 30 pmol, icv by radiant heat tail flick test; assay type: functional
Mus musculus [28] = test: Analgesic activity in Kunming mouse at 30 pmol, icv pre-treated with 10 nmol, icv opioid receptor antagonist beta-funaltrexamine by radiant heat tail flick test; assay type: functional, organism-based
Mus musculus [29] = test: Analgesic activity in Kunming mouse at 0.09 umol/kg, sc by radiant heat tail flick test; assay type: functional; conditions: dose 0.09 µmol/kg
Mus musculus [30] = test: Analgesic activity in icv dosed Kunming mouse dosed once daily for 8 consecutive days by radiant heat tail flick test; assay type: functional, organism-based; conditions: time 8.0 day
[31] = Toxicity in Kunming mouse assessed as effect on motor coordination at 30 pmol, icv by rotarod test; conditions: in vivo, icv_or_intrathecal
[32] = Toxicity in Kunming mouse assessed as effect on motor coordination at 0.09 umol/kg, sc by rotarod test; assay type: organism-based; conditions: in vivo, dose 0.09 µmol/kg
[33] = Toxicity in Kunming mouse assessed as increase in total travelled distance at 0.09 umol/kg, sc by open field assay; assay type: organism-based; conditions: in vivo, dose 0.09 µmol/kg
[34] = Toxicity in Kunming mouse assessed as activation of reward circuits at 0.09 umol/kg, sc by CPP test; assay type: organism-based; conditions: in vivo, dose 0.09 µmol/kg
[35] = Toxicity in Kunming mouse assessed as increase in jumping counts after naloxone-injection at 0.09 umol/kg, sc by naloxone-precipitated withdrawal test; assay type: organism-based; conditions: in vivo, dose 0.09 µmol/kg
[36] = Induction of constipation in sc dosed Kunming mouse assessed as inhibition of gastrointestinal motility by charcoal based gastrointestinal motility test; assay type: organism-based; conditions: in vivo
[37] = Safety index, ratio of ED50 for induction of constipation in sc dosed Kunming mouse to ED50 for analgesic activity in sc dosed Kunming mouse; assay type: organism-based; conditions: in vivo, read-out: Ratio ED50

| SMILES | pEC50 (Mu-type opioid receptor) | pEC50 [1] | pEC50 [2] | Emax [3] [%] | pEC50 [4] | Emax [5] [%] | pEC50 [6] | Emax [7] [%] | half-life at 10 µM [8] [min] | ED50 (Mus musculus [9]) [pmol] | Time (Mus musculus [10]) [h] | Activity (Mus musculus [11]) | ED50 (Mus musculus [12]) [µmol/kg] | Time (Mus musculus [13]) [h] | Activity (Mus musculus [22]) | further results |
| --- | --- | --- | --- | --- | --- | --- | --- | --- | --- | --- | --- | --- | --- | --- | --- | --- |
| N=C(N)NCCC[C@H](NC(=O)[C@H](CCC(N)=O)NC(=O)[C@@H]1CCCN1C(=O)[C@H](CS)NC(=O)[C@H](Cc1ccccc1)NC(=O)CNC(=O)[C@@H](CS)NC(=O)[C@@H](N)Cc1ccc(O)cc1)C(=O)N[C@@H](Cc1ccccc1)C(N)=O | 6.66 | 6.24 | 6.29 | 46.1 | 7.76 | 78.5 | 6.27 | 46.6 | 27.9 | 0.6 | 3 | Active | 0.13 | 3 | Active | Activity (Mus musculus [14]): inactive; Activity (Mus musculus [15]): inactive; Activity (Mus musculus [16]): Active; Activity (Mus musculus [17]): inactive; Activity (Mus musculus [18]): inactive; Activity (Mus musculus [19]): Active; Activity (Mus musculus [20]): Active; Activity (Mus musculus [21]): Active |
| N=C(N)NCCC[C@H](NC(=O)[C@H](CCC(N)=O)NC(=O)[C@@H]1CCCN1C(=O)[C@@H]1CSSC[C@@H](NC(=O)[C@@H](N)Cc2ccc(O)cc2)C(=O)NCC(=O)N[C@@H](Cc2ccccc2)C(=O)N1)C(=O)N[C@@H](Cc1ccccc1)C(N)=O | 7.37 | 6.06 | 6.76 | 65.1 | 8.12 | 75.9 | 7.72 | 53.3 | 53.6 | 0.014 | 3 | Active | 0.003 | 4 | Active | half-life at 10 µM [23]: 173 min; AUC [24]: 63 ng·h/mL; Drug uptake [25]: 3.87 µg·min/g; Kp [26]: 1.02; Activity (Mus musculus [10]): Dose-dependent effect; MPE (Mus musculus [27]): 90%; Activity (Mus musculus [28]): inactive; Activity (Mus musculus [12]): Dose-dependent effect; Activity (Mus musculus [29]): 80%; Activity (Mus musculus [30]): Active; Activity [31]: Non-Toxic; Activity [32]: Non-Toxic; Activity [33]: Non-Toxic; Activity [34]: Non-Toxic; Activity [35]: Non-Toxic; Activity [36]: Dose-dependent effect; ED50 [36]: 2.25 µmol/kg; selectivity ratio [37]: 750 |
